Results taken from patent publication US20240252472A1, “COMBINATIONS FOR TREATING CANCER” (Purdue Pharma L.P., priority 2023, published 2024).

Experiments:
Assay type in all cases: cell-based, human
IRF-1 = experiment: Western blot of transcription factors in MM cell lines; settings: MOLP-8 cell line; 1 and 2.5 μM, 48 h
Protocol: (§1) Western Blot Analysis Cells were collected and centrifuged at 1200 rpm for 5 minutes at 4° C. Cells were washed with PBS and lysed in ice-cold lysis buffer [140 mmol/L NaCl, 10 mmol/L EDTA, 10% glycerol, 1% NP40, 20 mmol/L Tris (pH 7), 1 μMol/L pepstatin, 1 μg/mL aprotinin, 1 μg/mL leupeptin, 1 mmol/L sodium orthovanadate]. Samples were centrifuged at 10,000×g at 4° C. for 10 minutes, and supernatants were transferred to new tubes and western blots were performed following standard procedures. CD38 and anti-α-tubulin primary antibodies used in Western blot analyses were obtained from Cell Signaling (Boston, MA, USA). The horseradish peroxidase-conjugated secondary antibodies were from GE Healthcare (Chicago, IL, USA).
(§2) To determine the mechanism by which EDO-S101 increases CD38 expression, the expression of the transcription factors NF-κB, AP-1 and IRF-1 which are known to be involved in regulating the expression of CD38 was evaluated. Treatment with EDO-S101 (1 and 2.5 μM) for 48 h increased the expression of c-Jun and c-Fos (subunits of the transcription factor AP-1) in two (MM1.S and RPMI-8226) of the four myeloma cell lines tested (FIG. 5). Additionally, EDO-S101 increased IRF-1 expression in the MOLP-8 cell line (FIG. 5).

[1] = system: c-Jun and c-Fos (subunits of the transcription factor AP-1); experiment: as above; settings: MM1.S and RPMI-8226 (two of four lines); 1 and 2.5 μM, 48 h
Protocol: as §1, §2

MOLP-8 cells = experiment: Daratumumab cross-linking mediated apoptosis after EDO-S101 pre-treatment; settings: MOLP-8 pre-treated with EDO-S101 2.5 μM 48 h, daratumumab 1 μg/mL 24 h + F(ab)2; vs not pre-treated, p=0.0454
Protocol: ADCC, CDC and apoptosis via cross-linking To assess the effect of tinostamustine pre-treatment on cytotoxic mechanisms mediated by daratumumab, MM cell lines were first incubated in presence of tinostamustine (2.5 μM) or DMSO for 48 hours. Cells were then washed to remove tinostamustine or DMSO from the culture medium, and the corresponding cytotoxic assay (ADCC, CDC or apoptosis via cross-linking) was performed.
For the evaluation of ADCC, tinostamustine or DMSO pre-treated cells were cocultured with NK cells obtained from healthy donors in the presence of daratumumab (1 μg/ml) or the corresponding isotype control for 4 hours (ratio 1:1). […] In all three assays, the cytotoxic effect on MM cells was evaluated by flow cytometry with Annexin V/7AAD staining after treatment with daratumumab. […]
MM cells (MOLP-8 cells pre-treated with 0, 0.1, 0.5, 1 or 2.5 μM EDO-S101 for 48 hours in accordance with the methods outlined above) were incubated for 24 hours in the presence of 1 μg/mL daratumumab or the corresponding isotype control, along with 10 μg/mL F(ab)2 fragments for cross-linking. Apoptosis was evaluated by flow cytometry in accordance with the methods outlined above, using AnnexinV/7AAD staining. The effect of EDO-S101 on the crosslinking-mediated apoptosis induced by daratumumab was assessed using the following formula: […]

MM cells (MOLP-8) = experiment: Daratumumab-mediated ADCP, macrophage/myeloma co-culture; settings: MM cells pre-treated 2.5 μM 48 hours; macrophages 3:1, daratumumab 4 hours; vs not pre-treated
Protocol: Mononuclear cells were isolated from buffy coats from healthy donors using density gradient centrifugation with Ficoll and subsequently CD14+ monocytes were magnetically isolated in an autoMACS® Pro Separator. Monocytes were cultured for 7 days in the presence of GM-CSF (10 ng/mL) to induce differentiation to macrophages. For the evaluation of ADCP, myeloma cells were either untreated or pre-treated with 2.5 μM EDO-S101 for 48 hours. Cells were washed to remove EDO-S101 from the culture medium, and untreated and pre-treated myeloma cells were stained with PKH26. Co-cultures of macrophages and myeloma cells^PKH26+ (ratio 3:1) were incubated with different concentrations of daratumumab or the corresponding isotype control for 4 hours at 37° C. ADCP was evaluated by flow cytometry with the panel: CD11b-FITC/PKH26/CD138-APC. […]
ADCP was quantified as the percentage of double positive events using the following formula: […]
‘Treatment double positive cells’ refers to the proportion of macrophages (as a percentage) determined to have phacocytosed MM cells in co-cultures treated with daratumumab. ‘Control double positive cells’ refers to the proportion of macrophages (as a percentage) determined to have phacocytosed MM cells in co-cultures that were ED-S101 untreated or pre-treated but not treated with daratumumab.
Elimination of myeloma cells was calculated using the following formula: […]

Cn1c(CCCCCCC(=O)NO)nc2cc(N(CCCl)CCCl)ccc21 [EDO-S101, 7-(5-(bis(2-chloroethyl)amino)-1-methyl-1H-benzo[d]imidazol-2-yl)-N-hydroxyheptanamide]
IRF-1 expression (IRF-1): increased
expression of c-Jun and c-Fos [1]: increased
daratumumab-mediated apoptosis via cross-linking (MOLP-8 cells): higher
ADCP: percentage of double positive events (macrophages that have phagocytosed myeloma cells) (MM cells (MOLP-8)): increased
ADCP: percentage of eliminated MM cells (MM cells (MOLP-8)): decreased
